According to patent US6258790A, “Antisense modulation of integrin α4 expression” (Isis Pharmaceuticals, Inc., priority 1999, dated 2001):

How the values were obtained:
[1] = test system: leukocyte migration; settings: 3 mg/kg oral; 24 hours after implantation; cited from earlier work
[2] = test system: dextran sulfate-mediated colitis in mice; settings: cited from earlier work
[3] = test system: human integrin α4; assay: Inhibition of human integrin α4 protein levels by antisense oligonucleotides (LIPOFECTIN, flow cytometry with CD49d-FITC) in A375 melanoma cells; format: cell-based; parameters: % Inhib.: tested at 200 nM
[4] = test system: human integrin α4; assay: Integrin α4 protein expression in A375 cells after electroporation of oligonucleotide (flow cytometry); format: cell-based
Description: A375 cells were treated with ISIS 107245, 107248, 107252, 107255 and 107259 by electroporation at 175 volts, r=1, c=1000, 0.2 ml Opti-MEM, 1×10^6 cells /ml, 2 mm gap electrode using a BTX Electro Cell Manipulator 600 (Genetronics, San Diego Calif.). Oligonucleotide concentrations were 1, 3, 10 and 30 μM. Cells were harvested 24 hours after oligonucleotide treatment and strained with 2 ug/ml CD49d-FITC for flow cytometry as in the previous examples.
ISIS 107248 was compared directly to ISIS 27104 for ability to inhibit integrin α4 expression in A375 melanoma cells. Oligonucleotides were electroporated into cells as in the previous example.

[5] = test system: C8161 human melanoma cells; assay: Experimental metastasis assay, C8161 cells injected into athymic nude mice; format: in vivo, human melanoma cells in athymic nude mice
Description: To evaluate the role of integrin α4 in metastasis, experimental metastasis assays are performed by injecting 1×10^5 C8161 cells into the lateral tail vein of athymic nude mice. C8161 is a human melanoma cell line. […] Four-week-old female athymic nude mice (Harlan Sprague Dawley) are used. Animals are maintained under the guidelines of the NIH. Groups of 4-8 mice each are tested in experimental metastasis assays.
Treatment of C8161 cells with antisense oligonucleotide ISIS 27104, complementary to human integrin α4, is performed in the presence of the cationic lipid, LIPOFECTIN (Gibco/BRL, Gaithersburg, Md.). Cells are seeded in 60 mm tissue culture dishes at 10^6 cells/ml and incubated at 37° C. for 3 days, washed with Opti-MEM (Gibco/BRL) 3 times and 100 μl of Opti-MEM medium is added to each well. 0.5 μM oligonucleotide and 15 μg/ml LIPOFECTIN are mixed at room temperature for 15 minutes. 25 μl of the oligonucleotide-LIPOFECTIN mixture is added to the appropriate dishes and incubated at 37° C. for 4 hours. […] After 4 hours, 500 U/ml TNF-α is added to the appropriate wells and incubated for 18 hours at which time cells are removed from the plates, counted and injected into athymic nude mice. […]
After 4 weeks, mice are sacrificed, organs are fixed in Bouin's fixative and metastatic lesions on lungs are scored with the aid of a dissecting microscope.

[6] = test system: Mouse experimental autoimmune encephalomyelitis (EAE); assay: Mouse experimental autoimmune encephalomyelitis (EAE) model for multiple sclerosis; format: in vivo, mouse (CSJLF-1); settings: scrambled control; for Peak Severity: score 0 to 5
[7] = test system: leukocyte trafficking into the central nervous system of EAE mice; assay: Reduction of leukocyte trafficking into the central nervous system of EAE mice (immunostaining of sections); format: in vivo, mouse (CSJLF1); settings: EAE experiment 4
Description: The pieces were embedded in O.C.T. tissue freezing medium (Ted Pella Inc., Redding, Calif.) on dry ice and methylbutane. Four-micron frozen sections were cut and air dried overnight. The sections were fixed for three minutes in ice-cold acetone and then placed on a Dako Autostainer (Dako Corporation, Carpinteria, Calif.) and treated in the following steps: 5 minutes in 0.03% H2 O2, 5 minutes in 5% donkey serum diluted in PBS, 45 minutes in appropriately diluted primary antibody, 30 minutes in horseradish peroxidase-labeled donkey anti-rat secondary antibody (Jackson Laboratory, Bar Harbor, Me.). Sections were rinsed between treatments with PBS. All the antibodies used were rat anti-mouse from PharMingen (San Diego, Calif.), except BM-8, which was from Bachem Bioscience Inc. (King of Prussia, Pa.). The immunostaining was developed with DAB (Dako Corporation) and counterstained with hematoxylin.

[8] = test system: Mouse collagen-induced arthritis (CIA); assay: Mouse collagen-induced arthritis (CIA) model for rheumatoid arthritis; format: in vivo, mouse (DBA/1LacJ); settings: Table 22; positive control, 5 mg/kg daily IP
Description: A model for human rheumatoid arthritis has been developed wherein mice are immunized with bovine type II collagen. Anderson et al., J. Immunol. 1991 147, 1189-1193, citing Trentham et al., J. Exp. Med 1977, 146, 857. Swelling and inflammation of the joints follows in approximately 3 weeks, with joint distortion and ankylosis typical of rheumatoid arthritis. This model has been used to study the effects of the antisense oligonucleotide 17044, targeted to mouse integrin α4, on arthritis in mice.
DBA/1LacJ mice were obtained from Jackson Laboratory, Bar Harbor, Me. Female mice aged 6 to 8 weeks were used and assigned to groups, ten mice per group. On day 0 mice were immunized at the base of the tail with 100 ug of bovine type II collagen which was emulsified in Complete Freund's Adjuvant (CFA). On day 7, a second booster dose of collagen was administered by the same route. On day 14 the mice were injected subcutaneously with 100 ug of lipopolysaccharide (LPS). Weights were recorded weekly. Mice were inspected daily for the onset of CIA, which is characterized by erythema and edema. Upon the onset of the disease, paw widths and rear ankle widths of affected and unaffected joints were measured three times a week using a constant tension caliper. In addition, limbs were clinically evaluated and graded 0-4, where 0=normal; 1=one digit swollen; 2=inflammation present in more than one digit; 3=joint distortion with or without inflammation; and 4=ankylosis, detected by joint manipulation. The progression of all measurements was recorded to day 50. At the end of the observation period for each mouse, all paws were removed and examined histologically.
The oligonucleotide, the positive control drug (cyclophosphamide, 5 mg/kg), and the vehicle were administered daily to each mouse intraperitoneally (IP) starting on day -3 and continuing for the duration of the study. Each animal received 10 mg/kg as a bolus daily dose.
In a preliminary study, a single 10 mg/kg daily dose of […] was administered from the time of disease induction to the conclusion of the study 50 days later. Arthritis incidence was reduced from 70 to 30% in the ISIS 17044-treated group.

[9] = Table 24, A375 cells, lipofectin, as Example 8

In the case of COc1ccc2c(c1)c(CC(=O)O)c(C)n2C(=O)c1ccc(Cl)cc1 [Indomethacin], the “reduction in mean leukocyte count compared to vehicle control” value [1] is listed as 75-80%.

In the case of TGF-β, the “dextran sulfate-mediated colitis” value [2] is listed as “protect against dextran sulfate-mediated colitis in mice”.

In the case of “27104 (CCCAAGCCATGCGCTCTCGG; phosphorothioate, 2'-MOE, 5-methyl-C, further chemistry not given here) [compound 27104]”, the “inhibition (Example 10)” value ([3]; Example 10 assay, dose not stated) is reported as ≥ 40%, the “inhibition (Example 11)” value ([3]; Example 11 assay, dose not stated) is reported as ≥ 40% and the “% Control” value ([3]; Table 4, 10 nM) is reported as 69%. The “% Inhib.” value ([3]; Table 4, 10 nM) was 31%, the “% Control” value ([3]; Table 4, 30 nM) was 64% and the “% Inhib.” value ([3]; Table 4, 30 nM) was 36%. The “% Control” value ([3]; Table 4, 100 nM) was 49%, the “% Inhib.” value ([3]; Table 4, 100 nM) was 51% and the “% Control” value ([3]; Table 4, 300 nM) was 39%. For the same molecule, the “% Inhib.” value ([3]; Table 4, 300 nM (highest dose)) was 61%, the “% Control” value ([3]; Table 6, 10 nM) was 84% and the “% Inhib.” value ([3]; Table 6, 10 nM) was 16%. The “% Control” value ([3]; Table 6, 30 nM) was 82%, the “% Inhib.” value ([3]; Table 6, 30 nM) was 18% and the “% Control” value ([3]; Table 6, 100 nM) was 59%. For the same molecule, the “% Inhib.” value ([3]; Table 6, 100 nM) was 41%, the “% Control” value ([3]; Table 6, 300 nM) was 37% and the “% Inhib.” value ([3]; Table 6, 300 nM (highest dose)) was 63%. For the same molecule, the “% Control” value [3, 9] was 69%, the “% Inhib.” value [3, 9] was 31% and the “% Control” value ([4]; Table 25, 1 nM as printed, 24 hours) was 86.2%. The “% Control” value ([4]; Table 25, 10 nM, 24 hours) was 63.2%, the “% Control” value ([4]; Table 25, 30 nM, 24 hours) was 35.3% and the “% Control” value ([4]; Table 26, 1 μM) was 86.2%. For the same molecule, the “% Inhib.” value ([4]; Table 26, 1 μM) was 13.8%, the “% Control” value ([4]; Table 26, 3 μM) was 63.2% and the “% Inhib.” value ([4]; Table 26, 3 μM) was 36.8%. The “% Control” value ([4]; Table 26, 10 μM) was 35.3%, the “% Inhib.” value ([4]; Table 26, 10 μM) was 64.7% and the “% Control” value ([4]; Table 26, 30 μM) was 27.1%. The “% Inhib.” value ([4]; Table 26, 30 μM) was 72.9%, the “enhanced metastatic ability of C8161 from TNF-α treatment” value ([5]; TNF-α treated cells) was “eliminates the enhanced metastatic ability” and the “metastatic potential of C8161 cells” value ([5]; cells treated with oligonucleotide before injection) was “decreases the metastatic potential”.

In the case of “17614 (GCCGACACCCGTTCGTTCGG; phosphorothioate, 2'-MOE/deoxy, further chemistry not given here) [compound 17614]”, the “Days to Onset” value ([6]; EAE Experiment 3, 1 mg/kg) is reported as 16.86 days, the “Disease Incidence” value ([6]; EAE Experiment 3, 1 mg/kg) is reported as 7/7 and the “Peak Severity” value ([6]; EAE Experiment 3, 1 mg/kg) is reported as 2.14. For the same molecule, the “Days to Onset” value ([6]; EAE Experiment 4, 2 mg/kg SC) was 14.14 days, the “Disease Incidence” value ([6]; EAE Experiment 4, 2 mg/kg SC) was 7/7 and the “Peak Severity” value ([6]; EAE Experiment 4, 2 mg/kg SC) was 1.86. The “Days to Onset” value ([6]; EAE Experiment 5, 2 mg/kg SC) was 9 days, the “Disease Incidence” value ([6]; EAE Experiment 5, 2 mg/kg SC) was 6/7 and the “Peak Severity” value ([6]; EAE Experiment 5, 2 mg/kg SC) was 1.71. For the same molecule, the “reduction of cellular influx, scrambled control” value [7] was “not effective in reducing cellular influx”.

For O=P1(N(CCCl)CCCl)NCCCO1 (centres unmarked) [Cyclophosphamide, cyclophosphamide, reference compound], the “# Paws/Mouse (mean number of affected paws at termination)” value [8] was 0 ± 0 and the “Severity (total clinical score/total number of mice in group)” value [8] was 0 ± 0.
